Assay results reported in the NIST ThermoML archive (doi:10.1016/j.fluid.2010.07.026).
Several values for one entry are separate records, joined by “and”; a condition that tells them apart may be missing. Equal values may be shown once. ± gives the expanded uncertainty stated by the source.

Assays:
[1] = Capillary rise
[2] = wn = mass fraction of the nth substance listed; settings: Capillary rise

CCC [propane]
[1]
Settings	surface tension liquid-gas [mN/m]
278.18 K	9.5 ± 0.4
283.18 K	8.9 ± 0.4
288.19 K	8.3 ± 0.4
293.18 K	7.7 ± 0.4
298.1 K	7.1 ± 0.4
303.18 K	6.4 ± 0.4

COC [dimethyl ether] + CCC
[2]
Settings	surface tension liquid-gas
243.4 K, w1 = 0.4975	16 ± 0.4 mN/m
243.46 K, w1 = 0.6949	17.3 ± 0.4 mN/m and 17.2 ± 0.4 mN/m
243.56 K, w1 = 0.3007	15.2 ± 0.4 mN/m
248.19 K, w1 = 0.4975	15.4 ± 0.4 mN/m
248.27 K, w1 = 0.3007	14.5 ± 0.4 mN/m
248.43 K, w1 = 0.6949	16.7 ± 0.4 mN/m and 16.6 ± 0.4 mN/m
253.08 K, w1 = 0.3007	13.9 ± 0.4 mN/m
253.09 K, w1 = 0.4975	14.7 ± 0.4 mN/m
253.23 K, w1 = 0.6949	15.9 ± 0.4 mN/m and 15.8 ± 0.4 mN/m
258.34 K, w1 = 0.6949	15.2 ± 0.4 mN/m
258.38 K, w1 = 0.4975	13.9 ± 0.4 mN/m and 14 ± 0.4 mN/m
258.42 K, w1 = 0.3007	13.1 ± 0.4 mN/m
263.11 K, w1 = 0.4975	13.4 ± 0.4 mN/m
263.16 K, w1 = 0.6949	14.4 ± 0.4 mN/m
263.33 K, w1 = 0.3007	12.4 ± 0.4 mN/m
268.05 K, w1 = 0.3007	11.8 ± 0.4 mN/m
268.16 K, w1 = 0.4975	12.7 ± 0.4 mN/m
268.16 K, w1 = 0.6949	13.7 ± 0.4 mN/m
273.14 K, w1 = 0.3007	11.1 ± 0.4 mN/m
273.15 K, w1 = 0.6949	12.9 ± 0.4 mN/m
273.16 K, w1 = 0.4975	11.9 ± 0.4 mN/m and 12 ± 0.4 mN/m
278.13 K, w1 = 0.3007	10.5 ± 0.4 mN/m
278.15 K, w1 = 0.4975	11.3 ± 0.4 mN/m
278.16 K, w1 = 0.6949	12.3 ± 0.4 mN/m
283.13 K, w1 = 0.3007	9.8 ± 0.4 mN/m
283.16 K, w1 = 0.4975	10.6 ± 0.4 mN/m
283.16 K, w1 = 0.6949	11.6 ± 0.4 mN/m
288.12 K, w1 = 0.3007	9.1 ± 0.4 mN/m
288.15 K, w1 = 0.4975	10 ± 0.4 mN/m
288.15 K, w1 = 0.6949	11 ± 0.4 mN/m and 11.1 ± 0.4 mN/m
293.11 K, w1 = 0.3007	8.4 ± 0.4 mN/m and 8.5 ± 0.4 mN/m
293.13 K, w1 = 0.4975	9.3 ± 0.4 mN/m
293.17 K, w1 = 0.6949	10.4 ± 0.4 mN/m
298.08 K, w1 = 0.3007	7.8 ± 0.4 mN/m and 7.9 ± 0.4 mN/m
298.09 K, w1 = 0.4975	8.7 ± 0.4 mN/m
298.1 K, w1 = 0.6949	9.6 ± 0.4 mN/m
303.12 K, w1 = 0.4975	8 ± 0.4 mN/m
303.15 K, w1 = 0.3007	7 ± 0.4 mN/m and 7.1 ± 0.4 mN/m
303.17 K, w1 = 0.6949	9.1 ± 0.4 mN/m
308.08 K, w1 = 0.4975	7.4 ± 0.4 mN/m
308.11 K, w1 = 0.3007	6.5 ± 0.4 mN/m
308.11 K, w1 = 0.6949	8.5 ± 0.4 mN/m and 8.4 ± 0.4 mN/m
313.17 K, w1 = 0.3007	5.9 ± 0.4 mN/m
313.17 K, w1 = 0.4975	6.6 ± 0.4 mN/m and 6.7 ± 0.4 mN/m
313.18 K, w1 = 0.6949	7.7 ± 0.4 mN/m
318.13 K, w1 = 0.3007	5.3 ± 0.4 mN/m
318.13 K, w1 = 0.4975	6.1 ± 0.4 mN/m
318.16 K, w1 = 0.6949	7.1 ± 0.4 mN/m
323.17 K, w1 = 0.3007	4.8 ± 0.4 mN/m
323.17 K, w1 = 0.4975	5.5 ± 0.4 mN/m
323.17 K, w1 = 0.6949	6.5 ± 0.4 mN/m and 6.4 ± 0.4 mN/m
328.12 K, w1 = 0.3007	4.2 ± 0.4 mN/m
328.13 K, w1 = 0.4975	4.9 ± 0.4 mN/m and 5 ± 0.4 mN/m
328.14 K, w1 = 0.6949	5.9 ± 0.4 mN/m and 5.8 ± 0.4 mN/m
333.12 K, w1 = 0.3007	3.7 ± 0.4 mN/m
333.13 K, w1 = 0.6949	5.3 ± 0.4 mN/m and 5.2 ± 0.4 mN/m
333.14 K, w1 = 0.4975	4.3 ± 0.4 mN/m

COC [dimethyl ether]
[1]
Settings	surface tension liquid-gas [mN/m]
278.16 K	14.7 ± 0.4
283.21 K	13.9 ± 0.4
288.17 K	13.1 ± 0.4
293.15 K	12.6 ± 0.4
298.1 K	11.8 ± 0.4
303.13 K	11 ± 0.4
